Columns and labels:
[1] = UV-Vis absorption spectrum in a solution state; format: physicochemical; conditions: compared with the corresponding perylene diimide without tin ring
[2] = Transient absorption spectrum and triplet decay; format: physicochemical; conditions: dynamic absorption fitting at 485 nm in the transient absorption spectrum
Description: (2) The transient absorption spectrum of 6-undecylamine derived tin cyclized perylene diimide (shown in FIG. 2) was tested, and a strong excited triplet absorption at 400 nm-515 nm was detected.
The decay time is 17 μs. 6-undecylamine derived tin cyclized perylene diimide has a relatively long triplet time life.

cervical cancer cells = experiment: DCFH-DA reactive oxygen imaging in cervical cancer cells; format: cell-based; conditions: cervical cancer cells with DCFH-DA
Source text: (5) The application of photosensitizers to photodynamic therapy requires the photosensitizers to have low cytotoxicity and capability of entering cells, and to achieve better singlet oxygen output in the cells. In cervical cancer cells, the fluorescent probe DCFH-DA, as a reactive oxygen detection reagent, is non-fluorescent and can freely penetrate the cell membrane to enter the cell. The reactive oxygen species (single oxygen) in the cells can oxidize the non-fluorescent DCFH to produce a fluorescent DCF, and the level of the reactive oxygen species can be known by detecting the fluorescence intensity of DCF. […] In the figure, fluorescence images of the cervical cancer cells, which are cultured in the presence of 6-undecylamine derived tin cyclized perylene diimide and DCFH-DA, subjected to no light, and 10 s, 20 s, 30 s of […] green light irradiation are respectively presented from left to right. It is known from the figure that the singlet oxygen generated from photosensitization of 6-undecylamine derived tin cyclized perylene diimide oxidizes DCFH to produce fluorescent DCF, which makes the fluorescence of cervical cancer cells appear by imaging, and the imaging effect becomes better along with the time.

[3] = Singlet oxygen quantum yield by DPBF capture in DCM; format: physicochemical; conditions: absorbance change at 414 nm
Source text: (4) The triplet energy of the photosensitizer can be transferred to triplet oxygen molecules (^3O2), to produce singlet oxygen molecules (^1O2). 1,3-diphenylisobenzofuran (DPBF) is used to capture singlet oxygen, and at the same time, DPBF itself is oxidized by ^1O2, resulting in a decrease in the absorption peak of DPBF at 414 nm in the UV-visible absorption spectrum. The singlet oxygen quantum yield of the photosensitizer molecule can be calculated by monitoring the absorbance change of DPBF at 414 nm. FIG. 4 is a graph showing decay of a UV-visible absorption of DPBF in DCM with time under the influence of 6-undecylamine derived tin cyclized perylene diimide as a photosensitizer. It is known from calculation that the singlet oxygen quantum yield of 6-undecylamine derived tin cyclized perylene diimide is 40%.

| SMILES | Absorption spectrum [1] | Triplet decay time [2] | irradiation time after which fluorescence intensity of cervical cancer cells no longer changes (cervical cancer cells; 420 nm green light irradiation) | singlet oxygen effect in cells (DCF fluorescence) (cervical cancer cells; no light and 10 s, 20 s, 30 s of 420 nm green light irradiation) | Singlet oxygen quantum yield [3] |
| --- | --- | --- | --- | --- | --- |
| CCCCCC(CCCCC)N1C(=O)c2ccc3c4ccc5c6c(c[c]7c(c8[c](cc(c2c38)C1=O)[Sn]7([CH2]CCC)[CH2]CCC)c64)C(=O)N(C(CCCCC)CCCCC)C5=O [6-undecylamine derived tin cyclized perylene diimide] | obvious red shift | 17 μs | 20 s | good singlet oxygen effect in cells | 40% |
| CCCCCC(CC(C)CCC)N1C(=O)c2ccc3c4ccc5c6c(c[c]7c(c8[c](cc(c2c38)C1=O)[Sn]7([CH2]CCC)[CH2]CCC)c64)C(=O)N(C(CCCCC)CC(C)CCC)C5=O (centres unmarked) [Example B4] | red shift | 17 μs |  |  | 47% |
| CCC[CH2][Sn]1([CH2]CCC)[c]2cc3c4c(ccc5c6ccc7c8c(c[c]1c(c2c45)c86)C(=O)N(CC(C)C)C7=O)C(=O)N(CC(C)C)C3=O [Example B6] | red shift | 18 μs |  |  | 29% |
| CCC[CH2][Sn]1([CH2]CCC)[c]2cc3c4c(ccc5c6ccc7c8c(c[c]1c(c2c45)c86)C(=O)N(CCCC(C)C)C7=O)C(=O)N(CCCCC(CC)CCC)C3=O (centres unmarked) [Example B10] | red shift | 12 μs |  |  | 26% |
| CCC[CH2][Sn]1([CH2]CCC)[c]2cc3c4c(ccc5c6ccc7c8c(c[c]1c(c2c45)c86)C(=O)N(c1ccc(C(C)(C)C)cc1)C7=O)C(=O)N(c1ccc(C(C)(C)C)cc1)C3=O [Example B14] | red shift | 14 μs |  |  | 33% |
| CCC[CH2][Sn]1([CH2]CCC)[c]2cc3c4c(ccc5c6ccc7c8c(c[c]1c(c2c45)c86)C(=O)N(c1cccc2[nH]ncc12)C7=O)C(=O)N(c1cccc2[nH]ncc12)C3=O [Example B16] | red shift | 19 μs |  |  | 46% |
| CCC[CH2][Sn]1([CH2]CCC)[c]2cc3c4c(ccc5c6ccc7c8c(c[c]1c(c2c45)c86)C(=O)N(c1cccc2ccccc12)C7=O)C(=O)N(c1cccc2ccccc12)C3=O [Example B17] | red shift | 11 μs |  |  | 36% |
| CCC[CH2][Sn]1([CH2]CCC)[c]2cc3c4c(ccc5c6ccc7c8c(c[c]1c(c2c45)c86)C(=O)N(c1ccncc1)C7=O)C(=O)N(c1ccncc1)C3=O [Example B20] | red shift | 25 μs |  |  | 42% |
| CCC[CH2][Sn]1([CH2]CCC)[c]2cc3c4c(ccc5c6ccc7c8c(c[c]1c(c2c45)c86)C(=O)N(C1CCNCC1)C7=O)C(=O)N(C1CCNCC1)C3=O [Example B22] | red shift | 21 μs |  |  | 44% |
